According to the supplement of paper PMC13207355:

How the values were obtained:
Details in all cases: exposure time: 72 h
E31 [1] = patient-derived glioblastoma stem cells of proneural subtype; assay: phenotypic distance (Euclidean, principal components) from DMSO controls (arbitrary units); higher = stronger morphological change
E57 [2] = patient-derived glioblastoma stem cells of mesenchymal subtype; assay: as above
E21 [3] = patient-derived glioblastoma stem cells of mesenchymal subtype; assay: as above
E34 [4] = patient-derived glioblastoma stem cells of proneural subtype; assay: as above
E28 [5] = patient-derived glioblastoma stem cells of classical subtype; assay: as above
E13 [6] = patient-derived glioblastoma stem cells of classical subtype; assay: as above
FT3469 [7] = normal neural stem cell line; assay: as above
E31 [8] = assay: surviving fraction (nuclei count normalised to DMSO); higher = more cells surviving (less toxic)
E57 [9] = assay: as above
E21 [10] = assay: as above
E34 [11] = assay: as above
E28 [12] = assay: as above
E13 [13] = assay: as above
FT3469 [14] = assay: as above
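For phenotypic distance (Euclidean, principal components) from DMSO controls in this document: cell Painting imaging in 384-well plates, CellProfiler features reduced to at least 20 principal components, Euclidean distance versus same-plate DMSO vehicle wells (0.1% v/v), median over six images per well.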
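For surviving fraction (nuclei count normalised to DMSO) in this document: nuclei counted by high-content imaging of Hoechst-stained cells in laminin-coated 384-well plates, relative to 0.1% DMSO vehicle wells, with staurosporine as cell-death control.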

NCCCP(=O)(O)O [3-Aminopropylphosphonic acid]
Details | phenotypic distance | surviving fraction
E13 [6], 4.1 nM | 0.873 | –
E13 [6], 12.3 nM | 0.485 | –
E13 [6], 37 nM | 1.1 | –
E13 [6], 111.1 nM | 0.795 | –
E13 [6], 333.3 nM | 1.09 | –
E13 [6], 1000 nM | 0.46 | –
E13 [6], 3000 nM | 0.816 | –
E13 [13], 4.1 nM | – | 0.801
E13 [13], 12.3 nM | – | 0.888
E13 [13], 37 nM | – | 1
E13 [13], 111.1 nM | – | 0.872
E13 [13], 333.3 nM | – | 0.982
E13 [13], 1000 nM | – | 0.884
E13 [13], 3000 nM | – | 0.962
E21 [3], 4.1 nM | 1.29 | –
E21 [3], 12.3 nM | 5.29 | –
E21 [3], 37 nM | 0.988 | –
E21 [3], 111.1 nM | 1.15 | –
E21 [3], 333.3 nM | 1.08 | –
E21 [3], 1000 nM | 0.704 | –
E21 [3], 3000 nM | 0.925 | –
E21 [10], 4.1 nM | – | 0.806
E21 [10], 12.3 nM | – | 0.98
E21 [10], 37 nM | – | 0.902
E21 [10], 111.1 nM | – | 0.886
E21 [10], 333.3 nM | – | 1.08
E21 [10], 1000 nM | – | 1
E21 [10], 3000 nM | – | 0.86
E28 [5], 4.1 nM | 0.627 | –
E28 [5], 12.3 nM | 0.887 | –
E28 [5], 37 nM | 1.05 | –
E28 [5], 111.1 nM | 0.933 | –
E28 [5], 333.3 nM | 1.07 | –
E28 [5], 1000 nM | 0.732 | –
E28 [5], 3000 nM | 1.53 | –
E28 [12], 4.1 nM | – | 0.762
E28 [12], 12.3 nM | – | 0.907
E28 [12], 37 nM | – | 0.775
E28 [12], 111.1 nM | – | 0.984
E28 [12], 333.3 nM | – | 0.931
E28 [12], 1000 nM | – | 0.888
E28 [12], 3000 nM | – | 0.713
E31 [1], 4.1 nM | 0.65 | –
E31 [1], 12.3 nM | 0.816 | –
E31 [1], 37 nM | 0.948 | –
E31 [1], 111.1 nM | 0.488 | –
E31 [1], 333.3 nM | 0.824 | –
E31 [1], 1000 nM | 0.792 | –
E31 [1], 3000 nM | 0.929 | –
E31 [8], 4.1 nM | – | 1.14
E31 [8], 12.3 nM | – | 0.932
E31 [8], 37 nM | – | 1
E31 [8], 111.1 nM | – | 0.983
E31 [8], 333.3 nM | – | 1.05
E31 [8], 1000 nM | – | 0.771
E31 [8], 3000 nM | – | 0.945
E34 [4], 4.1 nM | 0.981 | –
E34 [4], 12.3 nM | 3.38 | –
E34 [4], 37 nM | 1.08 | –
E34 [4], 111.1 nM | 0.945 | –
E34 [4], 333.3 nM | 0.527 | –
E34 [4], 1000 nM | 4.28 | –
E34 [4], 3000 nM | 0.559 | –
E34 [11], 4.1 nM | – | 0.923
E34 [11], 12.3 nM | – | 1.06
E34 [11], 37 nM | – | 0.998
E34 [11], 111.1 nM | – | 1.09
E34 [11], 333.3 nM | – | 1.08
E34 [11], 1000 nM | – | 1.05
E34 [11], 3000 nM | – | 1.05
E57 [2], 4.1 nM | 1.04 | –
E57 [2], 12.3 nM | 0.788 | –
E57 [2], 37 nM | 0.764 | –
E57 [2], 111.1 nM | 0.744 | –
E57 [2], 333.3 nM | 0.772 | –
E57 [2], 1000 nM | 1.04 | –
E57 [2], 3000 nM | 1.21 | –
E57 [9], 4.1 nM | – | 0.924
E57 [9], 12.3 nM | – | 0.912
E57 [9], 37 nM | – | 1.01
E57 [9], 111.1 nM | – | 1.06
E57 [9], 333.3 nM | – | 0.959
E57 [9], 1000 nM | – | 0.941
E57 [9], 3000 nM | – | 1.07
FT3469 [7], 4.1 nM | 1.45 | –
FT3469 [7], 12.3 nM | 0.83 | –
FT3469 [7], 37 nM | 0.983 | –
FT3469 [7], 111.1 nM | 0.685 | –
FT3469 [7], 333.3 nM | 0.68 | –
FT3469 [7], 1000 nM | 0.784 | –
FT3469 [7], 3000 nM | 2.45 | –
FT3469 [14], 4.1 nM | – | 0.65
FT3469 [14], 12.3 nM | – | 0.955
FT3469 [14], 37 nM | – | 0.892
FT3469 [14], 111.1 nM | – | 0.941
FT3469 [14], 333.3 nM | – | 1.09
FT3469 [14], 1000 nM | – | 1.08
FT3469 [14], 3000 nM | – | 1.06
